# Source: US9034862B2, “Compositions and methods for the treatment of cancer” (priority 2011, dated 2015)
# How the values were obtained:
# [1] = system: GLuc expression in A549 cells; assay: Transcription assay, globally platinated pGLuc, A549; assay type: cell-based, human; conditions: for transcription level (normalized against unplatinated plasmid): Pt/DNA ratio of […] for phenanthriplatin
# Description: Transfection of transcription probes into A549 and HT29 cells with the pGLuc plasmid was carried out using liposomal transfecting agents. Determination of expression levels was tested by Luciferase assays monitored by a luminometer (J. Am. Chem. Soc. 2010, 132, 7429-7435). A549 cells were plated in 96-well plates at 2,000 cells/well and HT29 cells were plated in 96-well plates at 6,000 cells/well. After 48 h incubation (at ˜30% confluence), cells were transfected with 50 ng of platinated plasmids in 25 μL Opti-MEM and 0.125 μL Lipofectamine 2000, and subsequently 50 μL of antibiotics-free DMEM supplemented with 10% FBS. After 2 h, the cells were washed with medium and 100 μL of fresh medium was added. The experiment was carried out in quadruplicate.
# GLuc activity was monitored using a luminescence plate reader (Synergy 2, BioTek, Winooski, Vt., USA). A 10 μL volume of medium at different time points (12, 24, 36, 48, 60 h) was transferred into opaque white 96-well plates, and 25 μL of GLuc assay solution (10 μM colelenterazine (NanoLight Technologies, Pinetop, Ariz., USA) in 2.5 mM acidified methanol (100 mM HCl), buffer (10 mM Tris-HCl pH 7.8, 1 mM EDTA, 0.6 M NaCl)) was added by the automatic injector of the instrument.
# In another embodiment, A549 or HT29 cells were transfected using the platinated transcription probes, and transcription levels were investigated by determining GLuc expression as measured by […] following addition of coelenterazine as a substrate for the exported enzyme. The emission intensities were normalized against unplatinated plasmids as a control. Transcription profiles were obtained by plotting normalized levels of GLuc expression against platination levels (Pt/plasmid ratio) at five different time points. […] An increase in D0 value at different time points represents restoration of transcription.
# [2] = system: Gaussia luciferase expression in MCF7 cells; conditions: ratio of recovery of transcription level vs. time
# Description: (§1) Vector Construction and Preparation. […] Preparation of Platinated Insertion Strand. […] The suspension was centrifuged. To a solution of 0.2 mM 16-mer oligonucleotide 5′-[…]*[…] The reaction mixture was incubated in the dark at 37° C. overnight. The reaction was stopped when the solution was frozen. […] After purification, the platinated DNA solution was dialyzed against H2O and lyophilized. […] The insertion strand was further analyzed for nucleotide composition by nuclease S1 digestion to confirm the platination site following a protocol published previously (Table 13) (e.g., see J Am Chem Soc 2007, 129, 6370-6371). The platinated and unplatinated DNA strands (40 μM) were phosphorylated by T4 PNK (0.67 U/μL) at 37° C. for 3 h, followed by a phenol/chloroform/isoamyl alcohol extraction to remove the enzyme. The phosphorylated DNA strands were ethanol precipitated and stored in −80° C. at a concentration of 100 pmol/μL.
# (§2) Briefly, a 600 μg quantity of pGLuc8temG plasmid was digested with 30 U Nt.BbvCI at 37° C. for 1 h. The reaction mixture was heated at 80° C. for 20 min to deactivate the enzyme, followed by a phenol/chloroform/isoamyl alcohol extraction to remove the enzyme. The mixture was dialyzed against H2O overnight at 4° C. The plasmid was further digested with 30 U Nt.BspQI at 50° C. for 1 h, and the enzyme was heat-deactivated and removed by a phenol/chloroform/isoamyl alcohol extraction. The nicked plasmid was mixed with 1,000 equiv of complementary DNA strand 5′-[…] (SEQ ID NO: 2) in a buffer of 10 mM Tris-HCl, 2 mM MgCl2, 0.4 M NaCl, pH 7.4, heated at 80° C. for 5 min, and subsequently cooled at 4° C. for 5 min for 10 cycles. […] A 120 μg quantity of the gapped plasmid was annealed with 100 equiv of the insertion strand in a buffer of 10 mM Tris-HCl, 2 mM MgCl2, 0.4 M NaCl, pH 7.4 from 90° C. to 4° C. at −1° C./min in a thermocycler. The platinated plasmid was dialyzed against H2O at 4° C. overnight and further purified by treatment with 30 U BsmBI at 55° C. for 1 h. The closed-circular form of plasmid was purified and concentrated by isopycnic centrifugation, followed by n-butanol extraction and ethanol precipitation. The plasmids were quantitated by a Quant-iT™ PicoGreen® dsDNA Kit from Invitrogen (Carlsbad, Calif.), and stored in −80° C. in TE buffer (10 mM Tris-HCl, 2 mM EDTA, pH 7.4).
# (§3) Transfection of platinated plasmids into mammalian cells was carried out as reported previously (e.g., see ChemBioChem 2011, 12, 1115-1123). A549 and HeLa cells were plated at 2,000 cells per well in 96-well plates. NTera-2 and HT29 cells were plated at 4,000 cells per well in 96-well plates. MCF7 and U2OS cells were plated at 5,000 cells per well in 96-well plates. The cells were allowed to attach and grow for 48 h, and then washed with antibiotic-free culture media right before transfection. Transient transfection of the cells was carried out using Lipofectamine 2000. Briefly, 10 ng of site specifically platinated probes was included in each well. The experiments were performed in quadruplicate. The probes were diluted in OptiMEM, and Lipofectamine was diluted in OptiMEM. The two solutions were combined and incubated for 20 min. The transfection mixture was delivered into each well, and the cells were incubated for 2 h. The cells were washed with antibiotic-free culture media to remove the transfection mixture. A 100 μL volume of fresh, antibiotic-free media was added into each well to start the transcription assay. […]
# [3] = system: Gaussia luciferase expression in U2OS cells; conditions: ratio of recovery of transcription level vs. time
# Description: as §1, §2, §3
# [4] = system: Gaussia luciferase expression in A549 cells; conditions: ratio of recovery of transcription level vs. time
# Description: as §1, §2, §3
# [5] = system: Gaussia luciferase expression in HT29 cells; conditions: ratio of recovery of transcription level vs. time
# Description: as §1, §2, §3
# [6] = system: calf thymus DNA; assay: Ethidium bromide DNA-binding competition, Scatchard analysis; set-up: key: competitive (type A); non-competitive (type D); both (type B); No inhibition of ethidium binding is labeled as type C
# Description: Using this approach, it is possible to determine whether the inhibition of ethidium binding is competitive (type A), non-competitive (type D), or both (type B). No inhibition of ethidium binding is labeled as type C.
substance,measurement,setting,value
cis-[Pt(NH3)2(phenanthridine)Cl]NO3 [phenanthriplatin],transcription level (normalized against unplatinated plasmid),"[1]; A549, 12 h",19.5%
same,D0 (Pt lesions per plasmid required to reduce transcription levels to 37% of control),"[1]; A549, 12 h after transfection",14.2 Pt/plasmid
same,D0 (Pt lesions per plasmid required to reduce transcription levels to 37% of control),"[1]; A549, 24 h after transfection",17.3 Pt/plasmid
same,D0 (Pt lesions per plasmid required to reduce transcription levels to 37% of control),"[1]; A549, 36 h after transfection",22.2 Pt/plasmid
same,D0 (Pt lesions per plasmid required to reduce transcription levels to 37% of control),"[1]; A549, 48 h after transfection",31.6 Pt/plasmid
same,transcription level (normalized against unplatinated plasmid),"[1]; A549, 60 h",51.1%
same,D0 (Pt lesions per plasmid required to reduce transcription levels to 37% of control),"[1]; A549, 60 h after transfection",39.8 Pt/plasmid
same,recovery rate of transcription (S),[2],0.337
same,recovery rate of transcription (S),[3],0.805
same,recovery rate of transcription (S),[4],0.263
same,recovery rate of transcription (S),[5],0.884
same,type of inhibition of ethidium binding (Scatchard),[6]; 12-h incubation period,type D
same,type of inhibition of ethidium binding (Scatchard),[6]; 1 min incubation period,type C
